What all share (type): functional
Assay [1] can be described thus: Cell cycle arrest in human ATRA-resistant NB4-LR2 cells assessed as accumulation of cells at G2/M phase at 2 uM incubated for 12 hrs by DAPI staining based flow cytometric analysis (reference value: 15 %). In general terms: Flow cytometry measures light scatter and fluorescence of single cells or particles in a stream.
Assay [2] can be described thus: Cell cycle arrest in human ATRA-resistant NB4-LR2 cells assessed as accumulation of cells at S phase at 2 uM incubated for 3 hrs by DAPI staining based flow cytometric analysis (reference value: 19 %).
Assay [3] relates to NB-4. Kind of assay: Cell cycle arrest in human NB4 cells transfected with pLVX-shPML-RARalpha plasmid assessed as accumulation of cells at G2/M phase at 2 uM incubated for 12 hrs by DAPI staining based flow cytometric analysis (reference value: 22 %).
A short description of assay [4]: Induction of apoptosis in human ATRA-resistant NB4-LR2 cells assessed as early apoptotic cells at 1 uM incubated for 24 hrs by Annexin V-FITC/PI staining based flow cytometric analysis (reference value: 1.41 %).
Assay [5] in a line: Cell cycle arrest in human ATRA-resistant NB4-LR2 cells assessed as accumulation of cells at G0/G1 phase at 2 uM incubated for 24 hrs by DAPI staining based flow cytometric analysis (reference value: 42 %).
In assay [6] the test system is NB-4. Kind of assay: Cell cycle arrest in human NB4 cells assessed as accumulation of cells at G2/M phase at 1 uM incubated for 12 hrs by DAPI staining based flow cytometric analysis (reference value: 26 %).
Assay [7] can be described thus: Cell cycle arrest in human ATRA-resistant NB4-LR2 cells assessed as accumulation of cells at G2/M phase at 2 uM incubated for 6 hrs by DAPI staining based flow cytometric analysis (reference value: 15 %).
Assay [8] in a line: Cell cycle arrest in human ATRA-resistant NB4-LR2 cells assessed as accumulation of cells at sub-G1 phase at 1 uM incubated for 12 hrs by DAPI staining based flow cytometric analysis (reference value: 18 %).
Assay [9] relates to NB-4. Kind of assay: Cell cycle arrest in human NB4 cells assessed as accumulation of cells at S phase at 0.5 uM incubated for 24 hrs by DAPI staining based flow cytometric analysis (reference value: 26 %).
Assay [10] has as its system NB-4. The experiment in a line: Cell cycle arrest in human NB4 cells transfected with pLVX-shPML-RARalpha plasmid assessed as accumulation of cells at S phase at 1 uM incubated for 12 hrs by DAPI staining based flow cytometric analysis (reference value: 19 %).
The subject of assay [11] is NB-4. The experiment in a line: Cell cycle arrest in human NB4 cells assessed as accumulation of cells at G0/G1 phase at 1 uM incubated for 24 hrs by DAPI staining based flow cytometric analysis (reference value: 48 %).
A short description of assay [12]: Cell cycle arrest in human ATRA-resistant NB4-LR2 cells assessed as accumulation of cells at S phase at 2 uM incubated for 12 hrs by DAPI staining based flow cytometric analysis (reference value: 19 %).
Assay [13] concerns NB-4. Kind of assay: Cell cycle arrest in human NB4 cells transfected with pLVX-shRNA2-negative control assessed as accumulation of cells at G0/G1 phase at 2 uM incubated for 12 hrs by DAPI staining based flow cytometric analysis (reference value: 46 %).
The test system of assay [14] is NB-4. Kind of assay: Cell cycle arrest in human NB4 cells transfected with pLVX-shRNA2-negative control assessed as accumulation of cells at S phase at 1 uM incubated for 12 hrs by DAPI staining based flow cytometric analysis (reference value: 26 %).
Assay [15] is described as follows: Cell cycle arrest in human ATRA-resistant NB4-LR2 cells assessed as accumulation of cells at G2/M phase at 0.5 uM incubated for 24 hrs by DAPI staining based flow cytometric analysis (reference value: 25 %).
Assay [16] has as its system NB-4. Kind of assay: Cell cycle arrest in human NB4 cells assessed as accumulation of cells at sub-G1 phase at 2 uM incubated for 6 hrs by DAPI staining based flow cytometric analysis (reference value: 3 %).
For assay [17], the system named is NB-4. The experiment in a line: Cell cycle arrest in human NB4 cells assessed as accumulation of cells at G0/G1 phase at 2 uM incubated for 12 hrs by DAPI staining based flow cytometric analysis (reference value: 56 %).
Assay [18] has as its system NB-4. The experiment in a line: Cell cycle arrest in human NB4 cells assessed as accumulation of cells at G0/G1 phase at 1 uM incubated for 12 hrs by DAPI staining based flow cytometric analysis (reference value: 51 %).
For assay [19], the system named is NB-4. Kind of assay: Cell cycle arrest in human NB4 cells transfected with pLVX-shRNA2-negative control assessed as accumulation of cells at G0/G1 phase at 1 uM incubated for 12 hrs by DAPI staining based flow cytometric analysis (reference value: 46 %).
Assay [20] relates to NB-4. Kind of assay: Cell cycle arrest in human NB4 cells assessed as accumulation of cells at S phase at 1 uM incubated for 24 hrs by DAPI staining based flow cytometric analysis (reference value: 26 %).
Assay [21] in a line: Induction of apoptosis in human ATRA-resistant NB4-LR2 cells assessed as late apoptotic cells at 1 uM incubated for 24 hrs by Annexin V-FITC/PI staining based flow cytometric analysis (reference value: 5.62 %).
Assay [22] relates to NB-4. The experiment in a line: Cell cycle arrest in human NB4 cells assessed as accumulation of cells at G2/M phase at 2 uM incubated for 3 hrs by DAPI staining based flow cytometric analysis (reference value: 21 %).
Assay [23] is described as follows: Cell cycle arrest in human ATRA-resistant NB4-LR2 cells assessed as accumulation of cells at G0/G1 phase at 1 uM incubated for 12 hrs by DAPI staining based flow cytometric analysis (reference value: 42 %).
Assay [24] is described as follows: Cell cycle arrest in human ATRA-resistant NB4-LR2 cells assessed as accumulation of cells at sub-G1 phase at 0.5 uM incubated for 24 hrs by DAPI staining based flow cytometric analysis (reference value: 12 %).
The nature of assay [25]: Cell cycle arrest in human ATRA-resistant NB4-LR2 cells assessed as accumulation of cells at sub-G1 phase at 2 uM incubated for 24 hrs by DAPI staining based flow cytometric analysis (reference value: 12 %).
Assay [26] has as its system NB-4. Kind of assay: Cell cycle arrest in human NB4 cells transfected with pLVX-shRXRalpha plasmid assessed as accumulation of cells at G2/M phase at 1 uM incubated for 12 hrs by DAPI staining based flow cytometric analysis (reference value: 17 %).
Assay [27] can be described thus: Cell cycle arrest in human ATRA-resistant NB4-LR2 cells assessed as accumulation of cells at G2/M phase at 2 uM incubated for 3 hrs by DAPI staining based flow cytometric analysis (reference value: 15 %).
Assay [28] is described as follows: Cell cycle arrest in human ATRA-resistant NB4-LR2 cells assessed as accumulation of cells at S phase at 0.5 uM incubated for 24 hrs by DAPI staining based flow cytometric analysis (reference value: 21 %).
The subject of assay [29] is NB-4. Kind of assay: Cell cycle arrest in human NB4 cells transfected with pLVX-shPML-RARalpha plasmid assessed as accumulation of cells at sub-G1 phase at 1 uM incubated for 12 hrs by DAPI staining based flow cytometric analysis (reference value: 21 %).
Assay [30] deals with NB-4. Kind of assay: Cell cycle arrest in human NB4 cells assessed as accumulation of cells at G2/M phase at 2 uM incubated for 3 to 12 hrs by DAPI staining based flow cytometric analysis. The following applies: time 3-12 hrs.
In assay [31] the test system is NB-4. The experiment in a line: Cell cycle arrest in human NB4 cells assessed as accumulation of cells at G0/G1 phase at low concentration by DAPI staining based flow cytometric analysis.

Active and inactive are the calls of the source. No cut-off for these calls is given here.

Take `Cc1cc2c(cc1C(=O)/C(Br)=C/c1ccc(C(=O)O)cc1)C(C)(C)CCC2(C)C`: the Activity is reported as 22% in assay [1]; 6% in assay [2]; 20% with NB-4 [3]; 27.7% in assay [4]; 34% in assay [5]; 61% in the assay with NB-4 [6]. For the same compound, the Activity in assay [7] is 26%; in [8] it was 21%; with NB-4 [9], 10%; with NB-4 [10], 21%; in the assay on NB-4 [11], 38%; in [12], 10%. Further, the Activity with NB-4 [13] was 30%; in the assay with NB-4 [14] it was 8%; in assay [15], 33%; in the assay on NB-4 [16], 3%; in the assay on NB-4 [17], 11%; with NB-4 [18], 20%. Moreover, the Activity turned out to be 30% in the assay with NB-4 [19]; 9% with NB-4 [20]; 20.28% in [21]; 28% in the assay with NB-4 [22]; 10% in assay [23]; 18% in [24]. Moreover, the Activity in assay [25] is 21%; with NB-4 [26] it was 45%; in [27], 33%; in [28] it was 12%; in the assay on NB-4 [29] it was 24%.
For the compound `Cc1cc2c(cc1C(=O)/C(Br)=C\c1ccc(C(=O)O)cc1)C(C)(C)CCC2(C)C`, the outcome in the assay with NB-4 [30] and in the assay on NB-4 [31] was Active.
